Measurements reported in patent US9271448B2, “Method for cultivating sugar cane” (BASF SE, priority 2010, dated 2016).

Test system: sugar cane seedlings
Test: Growth of sugar cane seedlings treated in the greenhouse, then transplanted to the field
Type: in vivo
Excerpt: On an area of 0.1 hectares where sugar cane plants were growing with a distance between the rows of approximately 1.5 m, the top part of the 8 months old sugar cane plants was removed by chopping off with a machete in a height of approximately 2-2.5 m. The removed top part was discarded. After 30 days, on the below, remaining stalks, shoots (“1st generation”) had developed from the buds. The top parts (approximately 30 cm) of these shoots were removed by cutting. New shoots (“2nd generation”) developed from the cut shoots of the 1st generation. 30 days after cutting the top part of the 1st generation shoots, the 2nd generation shoots were removed by cutting them off closely to the nodes. On average, every node had produced three 2nd generation shoots. The removed 2nd generation shoots were each placed in pots filled with humid coconut fibers. The pots were placed in a greenhouse, and seedlings were grown from the planted shoots at 25-35° C. and 70-80% humidity. While in the greenhouse, the shoots/seedlings were watered sufficiently. One part of the seedlings was treated once with pyraclostrobin (in form of the commercial product Comet®; EC; 250 g/l) by immersing the entire tray containing the planted shoots for 10 min into a solution containing 4 ml of Comet® concentrate per l; i.e. 1 g pyraclostrobin per l. Another part of the seedlings remained untreated (control). 30 to 45 days after having been placed in the greenhouse, the surviving seedlings were transferred to an acclimatization area and kept for 15 days. Then they were counted and transplanted to a field. In sum 96,000 seedlings had been obtained. This number was sufficient for planting an area of 6.4 hectares with the same distance between the rows and the plants in the rows as in the originating field. […] 20 days after transplanting, the plant height of the treated and untreated plants was determined.

In the case of `COC(=O)N(OC)c1ccccc1COc1ccn(-c2ccc(Cl)cc2)n1` [pyraclostrobin], the Plant height (1 g a.i./l, planted shoots immersed once for 10 min, height determined 20 days after transplanting to the field) is reported as 38.3 cm, the “colour and vigour of the seedlings / young plants” value (treated once while in the greenhouse, 1 g pyraclostrobin per l, compared with untreated seedlings) is reported as “more intense, greener color and were more vigorous” and the “increase in plant height” value (versus untreated control, 1 g pyraclostrobin per l, 20 days after transplanting) is reported as “more than 30%”.
